Test results taken from patent US9783527B2, “Indazole ureas and method of use” (AbbVie Inc., priority 2014, dated 2017).

How the values were obtained:
[1] = system: MIA-induced osteoarthritic pain in rats; experiment: Osteoarthritic (OA) pain induced by sodium monoiodoacetate (MIA), hind limb grip force; assay type: in vivo, rat; conditions: male Sprague Dawley rats, grip force 20 days after MIA injection
Method: Osteoarthritic (OA) Pain Induced by Sodium Monoiodoacetate (MIA)
Pain behavior was assessed by measurement of hind limb grip force (GF) in adult osteoarthritic rats. Male Sprague Dawley rats, obtained from Charles River Laboratories, (Wilmington, Mass.), weighing 150-175 g, were injected in the unilateral knee join with a single intra-articular injection of sodium monoiodoacetate (MIA, 3 mg/rat). All rats were tested at 20 days following MIA injection. A behavioral measure of activity-induced pain was carried out. Measurements of the peak hind limb grip force were conducted by recording the maximum compressive force (CFmax), in grams of force, exerted on a hind limb strain gauge setup, in a commercially available grip force measurement system (Columbus Instruments, Columbus, Ohio).
During testing, each rat was gently restrained by grasping it around its rib cage and then allowed to grasp the wire mesh frame attached to the strain gauge. The experimenter then moved the animal in a rostral-to-caudal direction until the grip was broken. Each rat was sequentially tested twice at an approximately 2-3 minute interval to obtain a raw mean grip force (CFmax). This raw mean grip force data was in turn converted to a maximum hindlimb cumulative compressive force (CFmax), as the grams of force/kg of body weight, for each animal.
For evaluating the compound effects, the hind limb grip force was conducted 20 days following the intra-articular injection of MIA. A group of age-matched nave (not injected with MIA) animals was added as a comparator to the drug-dosed groups. The vehicle control response for each group of MIA-treated animals was defined as the 0% response (0% effect), whereas the nave control group was defined as the normal response and as 100% effect. The % effect for each dose group was expressed as % return of response to normalcy, compared to the nave group. A percent maximal possible effect (% MPE) of testing compound was calculated according to the formula: (Treatment CFmax−Vehicle CFmax)/Vehicle CFmax]×100). Higher % effect numbers indicate increased relief from the pain in the model, with 100% indicating a return to the level of response seen in normal (non-osteoarthritic) animals. All experiments evaluating drug effects in this model were conducted in a randomized blinded fashion.
(§1) The animals were housed in Association for Assessment and Accreditation of Laboratory Animal Care (AAALAC) approved facilities at AbbVie Inc. in a temperature-regulated environment under a controlled 12-hour light-dark cycle, with lights on at 6:00 a.m. Food and water were available ad libitum at all times except during testing. All testing was done following procedures outlined in protocols approved by AbbVie Inc.'s Institutional Animal Care and Use Committee.

[2] = system: spinal nerve ligation-induced neuropathic pain in rats; experiment: Rat spinal nerve ligation (SNL) model of neuropathic pain, von Frey paw withdrawal threshold; assay type: in vivo; conditions: SNL dose 100 mg/kg; male Sprague Dawley rats, mechanical sensitivity (von Frey)
Source text: Rat Spinal Nerve Ligation (SNL) Model of Neuropathic Pain.
A model of spinal nerve ligation-induced (SNL model) neuropathic pain as originally described by Kim and Chung (Kim, S. H. and J. M. Chung, 1992, Pain 50, 355) was used to test a compound of the present application. The male Sprague Dawley rats (Charles River Laboratories, Wilmington, Mass.), weighing 150-175 g at the time of surgery, were placed under isoflurane anesthesia and a 1.5 cm incision was made dorsal to the lumbosacral plexus. The paraspinal muscles (left side) were separated from the spinous processes, the left L5 and L6 spinal nerves isolated, and tightly ligated with 5-0 silk suture distal to the dorsal root ganglion. Care was taken to avoid ligating the L4 spinal nerve. Following spinal nerve ligation, a minimum of 7 days of recovery and no more than 3 weeks was allowed prior to the behavioral testing (mechanical sensitivity). Only rats with threshold scores ≦4.5 g were considered allodynic and utilized in pharmacological experiments.
Mechanical sensitivity was measured using calibrated von Frey filaments (Stoelting, Wood Dale, Ill.). Paw withdrawal threshold (PWT) was determined by using the Dixon's up-down method (Dixon, W. J., 1980, Ann. Rev. Pharmacol. Toxicol., 20, 441). Rats were placed into inverted individual plastic containers (20×12.5×20 cm) on top of a suspended wire mesh with a 1 cm^2 grid to provide access to the ventral side of the hind paws, and acclimated to the test chambers for 20 minutes. The von Frey filaments were presented perpendicularly to the plantar surface of the selected hind paw, and then held in this position for approximately 8 seconds with enough force to cause a slight bend in the filament. Positive responses included an abrupt withdrawal of the hind paw from the stimulus, or flinching behavior immediately following removal of the stimulus. A 50% withdrawal threshold was determined using an up-down procedure (Dixon, 1980). A percent maximal possible effect (% MPE) of testing compound was calculated according to the formula: (Log [compound-treated threshold]−Log [vehicle-treated threshold])/(Log [maximum threshold]−Log [vehicle-treated threshold])×100%, where the maximum threshold was equal to 15 g.
as §1, with “Inc.s'” for “Inc.'s”

[3] = target: human Nav1.7 (Homo sapiens (Human), UniProt Q15858); experiment: FRET-based membrane potential assay, recombinant human sodium channel Nav1.7; assay type: cell-based; conditions: HEK293 cells stably expressing recombinant human Nav1.7; depolarization with veratridine (EC80) + scorpion venom
Outline: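 IC50 derived by four-parameter Hill fit of percent inhibition of depolarization, measured as peak F440-480/F565-625 ratio over baseline. Stable human Nav1.7 HEK293 cells, dye-loaded with CC2-DMPE and DiSBAC2(3)/VABSC-1 at room temperature, received compound 3 min ahead of veratridine (EC80) plus scorpion venom.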

[4] = target: human Nav1.8 (Homo sapiens (Human), UniProt Q9Y5Y9); experiment: FRET-based membrane potential assay, recombinant human sodium channel Nav1.8; assay type: cell-based; conditions: HEK293 cells stably expressing recombinant human Nav1.8; depolarization with veratridine (EC80) + scorpion venom
Outline: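 HEK293 cells stably expressing Nav1.8 were loaded with CC2-DMPE/DiSBAC2(3) FRET voltage dyes. Compounds were added 3 min before depolarization with EC80 veratridine plus scorpion venom. The F440-480/F565-625 ratio was read on FLIPR; IC50 came from four-parameter Hill fits.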

human Nav1.7, sequence (Q15858 whole entry): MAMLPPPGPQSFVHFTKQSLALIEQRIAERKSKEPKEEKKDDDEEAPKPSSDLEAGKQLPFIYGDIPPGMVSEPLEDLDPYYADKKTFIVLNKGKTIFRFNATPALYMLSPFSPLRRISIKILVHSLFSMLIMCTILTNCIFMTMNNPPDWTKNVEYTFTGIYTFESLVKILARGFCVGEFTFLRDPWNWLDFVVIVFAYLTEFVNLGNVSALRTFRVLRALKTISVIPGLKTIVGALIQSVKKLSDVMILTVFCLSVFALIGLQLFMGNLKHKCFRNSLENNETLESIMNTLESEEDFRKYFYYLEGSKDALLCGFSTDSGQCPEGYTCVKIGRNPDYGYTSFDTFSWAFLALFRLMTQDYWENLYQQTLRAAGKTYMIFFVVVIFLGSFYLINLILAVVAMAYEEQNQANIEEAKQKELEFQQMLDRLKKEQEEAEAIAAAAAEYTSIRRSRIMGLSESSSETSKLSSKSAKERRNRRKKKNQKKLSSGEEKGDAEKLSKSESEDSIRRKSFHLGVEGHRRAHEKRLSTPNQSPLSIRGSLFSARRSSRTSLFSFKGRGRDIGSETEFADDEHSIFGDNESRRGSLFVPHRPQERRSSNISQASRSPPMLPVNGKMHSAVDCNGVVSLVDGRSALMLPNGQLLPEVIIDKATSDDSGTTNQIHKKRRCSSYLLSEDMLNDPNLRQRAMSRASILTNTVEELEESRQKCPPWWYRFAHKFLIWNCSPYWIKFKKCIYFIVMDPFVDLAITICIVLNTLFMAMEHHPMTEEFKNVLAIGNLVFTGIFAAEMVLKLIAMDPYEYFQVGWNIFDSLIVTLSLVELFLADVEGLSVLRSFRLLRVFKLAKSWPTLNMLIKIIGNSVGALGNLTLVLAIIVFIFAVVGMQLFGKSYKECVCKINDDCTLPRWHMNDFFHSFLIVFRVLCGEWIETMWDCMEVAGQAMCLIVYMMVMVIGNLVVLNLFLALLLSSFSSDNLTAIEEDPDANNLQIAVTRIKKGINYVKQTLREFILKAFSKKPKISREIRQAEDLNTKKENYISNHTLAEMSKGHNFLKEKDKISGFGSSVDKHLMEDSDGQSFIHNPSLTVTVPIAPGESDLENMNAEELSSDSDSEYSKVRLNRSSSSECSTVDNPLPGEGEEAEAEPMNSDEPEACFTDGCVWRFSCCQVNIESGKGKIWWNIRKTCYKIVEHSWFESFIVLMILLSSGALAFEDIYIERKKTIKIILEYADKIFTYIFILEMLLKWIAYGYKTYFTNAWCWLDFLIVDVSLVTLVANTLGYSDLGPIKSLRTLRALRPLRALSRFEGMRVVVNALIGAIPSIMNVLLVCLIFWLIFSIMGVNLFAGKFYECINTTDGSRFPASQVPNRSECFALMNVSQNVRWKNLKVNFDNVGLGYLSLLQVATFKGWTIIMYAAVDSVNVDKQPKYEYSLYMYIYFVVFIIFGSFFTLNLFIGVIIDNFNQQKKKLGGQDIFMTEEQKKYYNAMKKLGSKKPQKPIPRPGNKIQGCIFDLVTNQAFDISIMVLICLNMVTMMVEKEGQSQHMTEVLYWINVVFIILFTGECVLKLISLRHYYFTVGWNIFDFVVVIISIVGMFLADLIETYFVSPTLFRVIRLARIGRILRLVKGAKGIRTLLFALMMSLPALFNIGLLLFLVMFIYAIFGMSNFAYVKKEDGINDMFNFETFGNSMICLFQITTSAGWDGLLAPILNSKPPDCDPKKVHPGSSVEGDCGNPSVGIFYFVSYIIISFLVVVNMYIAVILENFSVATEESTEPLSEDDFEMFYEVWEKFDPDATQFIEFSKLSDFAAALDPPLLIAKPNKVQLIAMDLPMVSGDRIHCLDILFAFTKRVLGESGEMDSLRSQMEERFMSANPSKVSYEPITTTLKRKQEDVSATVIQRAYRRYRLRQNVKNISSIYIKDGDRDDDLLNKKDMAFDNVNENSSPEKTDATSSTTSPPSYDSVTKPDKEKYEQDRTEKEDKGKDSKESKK
human Nav1.8, sequence (Q9Y5Y9 whole entry): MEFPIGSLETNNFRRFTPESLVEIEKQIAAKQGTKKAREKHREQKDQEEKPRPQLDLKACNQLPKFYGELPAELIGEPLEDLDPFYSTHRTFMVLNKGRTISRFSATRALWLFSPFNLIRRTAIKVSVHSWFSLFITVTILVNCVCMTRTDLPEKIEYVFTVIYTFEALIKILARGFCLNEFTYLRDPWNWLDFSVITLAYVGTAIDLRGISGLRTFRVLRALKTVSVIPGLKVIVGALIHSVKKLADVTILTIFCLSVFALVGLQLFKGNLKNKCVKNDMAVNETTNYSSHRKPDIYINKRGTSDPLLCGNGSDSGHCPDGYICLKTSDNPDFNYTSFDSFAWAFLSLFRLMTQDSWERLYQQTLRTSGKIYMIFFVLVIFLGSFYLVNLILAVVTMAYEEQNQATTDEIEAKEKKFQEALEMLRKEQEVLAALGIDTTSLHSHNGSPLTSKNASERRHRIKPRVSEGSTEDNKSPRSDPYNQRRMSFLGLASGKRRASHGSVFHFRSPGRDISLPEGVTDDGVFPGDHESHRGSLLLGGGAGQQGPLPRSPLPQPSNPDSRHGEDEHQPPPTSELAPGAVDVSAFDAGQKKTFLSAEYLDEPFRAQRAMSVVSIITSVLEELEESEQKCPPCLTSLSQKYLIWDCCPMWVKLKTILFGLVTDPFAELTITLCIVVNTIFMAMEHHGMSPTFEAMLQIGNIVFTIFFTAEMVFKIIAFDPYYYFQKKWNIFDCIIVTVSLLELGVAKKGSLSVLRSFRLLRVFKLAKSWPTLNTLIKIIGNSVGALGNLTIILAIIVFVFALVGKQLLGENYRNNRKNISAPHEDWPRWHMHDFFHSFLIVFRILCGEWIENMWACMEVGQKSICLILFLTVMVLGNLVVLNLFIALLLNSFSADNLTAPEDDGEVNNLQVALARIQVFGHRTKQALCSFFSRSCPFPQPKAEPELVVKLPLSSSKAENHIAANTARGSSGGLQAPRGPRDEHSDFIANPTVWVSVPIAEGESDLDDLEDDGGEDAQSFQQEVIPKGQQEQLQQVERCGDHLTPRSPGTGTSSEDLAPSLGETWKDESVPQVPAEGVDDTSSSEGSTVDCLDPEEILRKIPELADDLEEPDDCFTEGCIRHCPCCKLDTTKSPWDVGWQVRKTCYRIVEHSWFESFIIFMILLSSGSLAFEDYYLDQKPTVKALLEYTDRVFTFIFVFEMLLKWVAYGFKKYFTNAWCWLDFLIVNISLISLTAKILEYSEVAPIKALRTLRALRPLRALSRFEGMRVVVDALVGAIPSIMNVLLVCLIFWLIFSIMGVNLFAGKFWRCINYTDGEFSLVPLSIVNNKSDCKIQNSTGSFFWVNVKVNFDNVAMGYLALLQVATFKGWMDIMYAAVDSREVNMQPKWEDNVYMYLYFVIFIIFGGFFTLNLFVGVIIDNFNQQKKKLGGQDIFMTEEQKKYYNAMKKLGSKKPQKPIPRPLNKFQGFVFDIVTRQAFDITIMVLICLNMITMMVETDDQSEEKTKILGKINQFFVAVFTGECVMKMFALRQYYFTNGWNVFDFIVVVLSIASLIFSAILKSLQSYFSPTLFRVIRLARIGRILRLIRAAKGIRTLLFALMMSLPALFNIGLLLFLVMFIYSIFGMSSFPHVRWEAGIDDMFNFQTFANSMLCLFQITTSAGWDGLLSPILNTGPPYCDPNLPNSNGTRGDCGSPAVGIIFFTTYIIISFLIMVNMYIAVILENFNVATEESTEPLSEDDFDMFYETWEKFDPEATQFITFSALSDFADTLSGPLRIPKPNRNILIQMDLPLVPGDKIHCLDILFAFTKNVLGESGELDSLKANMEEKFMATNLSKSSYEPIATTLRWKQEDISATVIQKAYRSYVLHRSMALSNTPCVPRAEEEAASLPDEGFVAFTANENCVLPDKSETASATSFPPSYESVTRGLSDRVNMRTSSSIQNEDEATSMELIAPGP

SMILES	OA MPE (%) ([1]; OA dose 30 mg/kg)	SNL MPE (%) [2]	IC50 [3]	IC50 [4]	OA MPE (%) ([1]; OA dose 10 mg/kg)
O=C(CN1CCN(c2cccc3c2cnn3-c2ccccc2F)C1=O)N1CCCC1 [Example 1, 1-[1-(2-fluorophenyl)-1H-indazol-4-yl]-3-[2-oxo-2-(pyrrolidin-1-yl)ethyl]imidazolidin-2-one]	55%	52%			
CC(C)(C)OC(=O)N1CCN(c2cccc3c2cnn3-c2ccccc2F)C1=O [Example 2, tert-butyl 3-[1-(2-fluorophenyl)-1H-indazol-4-yl]-2-oxoimidazolidine-1-carboxylate]		38%			
NC(=O)CN1CCN(c2cccc3c2cnn3-c2ccccc2F)C1=O [Example 3, 2-{3-[1-(2-fluorophenyl)-1H-indazol-4-yl]-2-oxoimidazolidin-1-yl}acetamide]		30%			
CC(C)OC(=O)N1CCN(c2cccc3c2cnn3-c2ccccc2F)C1=O [Example 4, isopropyl 3-[1-(2-fluorophenyl)-1H-indazol-4-yl]-2-oxoimidazolidine-1-carboxylate]		68%	223 nM	230 nM	
CC(C)CC(=O)CN1CCN(c2cccc3c2cnn3-c2ccccc2F)C1=O [Example 8, 1-[1-(2-fluorophenyl)-1H-indazol-4-yl]-3-(4-methyl-2-oxopentyl)imidazolidin-2-one]	75%	57%			
O=C(CN1CCN(c2cccc3c2cnn3-c2ccccc2F)C1=O)N1CC[C@H](F)C1 [Example 10, 1-[1-(2-fluorophenyl)-1H-indazol-4-yl]-3-{2-[(3S)-3-fluoropyrrolidin-1-yl]-2-oxoethyl}imidazolidin-2-one]	91%	0%			
O=C1N(Cc2ccccn2)CCN1c1cccc2c1cnn2-c1ccccc1F [Example 12, 1-[1-(2-fluorophenyl)-1H-indazol-4-yl]-3-(pyridin-2-ylmethyl)imidazolidin-2-one]		25%	1020 nM	321 nM	
O=C1N(Cc2cocn2)CCN1c1cccc2c1cnn2-c1ccccc1F [Example 26, 1-[1-(2-fluorophenyl)-1H-indazol-4-yl]-3-(1,3-oxazol-4-ylmethyl)imidazolidin-2-one]		54%	382 nM	517 nM	
O=C1N(Cc2ncco2)CCN1c1cccc2c1cnn2-c1ccccc1F [Example 31, 1-[1-(2-fluorophenyl)-1H-indazol-4-yl]-3-(1,3-oxazol-2-ylmethyl)imidazolidin-2-one]		94%			89%
O=C(CN1CCN(c2cccc3c2cnn3-c2ccccc2F)C1=O)N1CCC[C@@H](F)C1 [Example 53, 1-[1-(2-fluorophenyl)-1H-indazol-4-yl]-3-{2-[(3R)-3-fluoropiperidin-1-yl]-2-oxoethyl}imidazolidin-2-one]	74%	47%			
